ChEMBL document CHEMBL3351858, “Opioids and efflux transporters. Part 4: influence of N-substitution on P-glycoprotein substrate activity of noroxymorphone analogues” (Bioorg Med Chem Lett, 2014)
Activity calls are given as the source filed them. No cut-off for these calls is given here.

Species on record: Homo sapiens
Assay: Activity at human P-glycoprotein assessed as ATPase activity using firefly luciferase at 200 uM by Pgp-Glo assay in presence of MgATP
In the case of O=C1CC[C@@]2(O)[C@H]3Cc4ccc(O)c5c4[C@@]2(CCN3CCCc2ccccc2)[C@H]1O5, the Activity is reported as “Active”. For C/C=C/CN1CC[C@]23c4c5ccc(O)c4O[C@H]2C(=O)CC[C@@]3(O)[C@H]1C5, the Activity was “Active”. With CN1CC[C@]23c4c5ccc(O)c4O[C@H]2C(=O)CC[C@@]3(O)[C@H]1C5 the Activity was “inactive”. With O=C1CC[C@@]2(O)[C@H]3Cc4ccc(O)c5c4[C@@]2(CCN3CCc2ccccc2)[C@H]1O5 the Activity was “Active”. C=CCN1CC[C@]23c4c5ccc(O)c4O[C@H]2C(=O)CC[C@@]3(O)[C@H]1C5 was tested, and the Activity was “inactive”. With CC(C)=CCN1CC[C@]23c4c5ccc(O)c4O[C@H]2C(=O)CC[C@@]3(O)[C@H]1C5 the Activity was “inactive”. With O=C1CC[C@@]2(O)[C@H]3Cc4ccc(O)c5c4[C@@]2(CCN3CC2CC2)[C@H]1O5 the Activity was “inactive”. In the case of O=C1CC[C@@]2(O)[C@H]3Cc4ccc(O)c5c4[C@@]2(CCN3Cc2ccccc2)[C@H]1O5, the Activity is reported as “Active”. With C=C(C)CN1CC[C@]23c4c5ccc(O)c4O[C@H]2C(=O)CC[C@@]3(O)[C@H]1C5 the Activity was “Active”.
